Reference: patent US9890185B2, “Urea derivatives useful as kinase inhibitors” (Respivert Limited, priority 2013, dated 2018)
Where two headings read alike, the source gives them in different places.

Legend:
GSK 3α = GSK 3α (Homo sapiens (Human), UniProt P49840); test: GSK 3α enzyme inhibition (FRET, Z-LYTE, Method 2); assay type: biochemical; conditions: read-out: IC50 Values for Enzyme Inhibition, GSK3α
Procedure: The enzyme inhibitory activities of compounds disclosed herein are determined by FRET using synthetic peptides labelled with both donor and acceptor fluorophores (Z-LYTE, Invitrogen Ltd., Paisley, UK).
The following two assay variants can be used for determination of GSK 3α inhibition.
The inhibitory activities of compounds of the invention against the GSK 3α enzyme isoform (Invitrogen), are evaluated by determining the level of activation/phosphorylation of the target peptide. The GSK3-α protein (500 ng/mL, 2.5 μL) is mixed with the test compound (2.5 μL at either 4 μg/mL, 0.4 μg/mL, 0.04 μg/mL, or 0.004 μg/mL) for 2 hr at RT. The FRET peptide (8 μM, 2.5 μL), which is a phosphorylation target for GSK3α, and ATP (40 μM, 2.5 μL) are then added to the enzyme/compound mixture and the resulting mixture incubated for 1 hr. Development reagent (protease, 5 μL) is added for 1 hr prior to detection in a fluorescence microplate reader (Varioskan® Flash, ThermoFisher Scientific).
In all cases, the site-specific protease cleaves non-phosphorylated peptide only and eliminates the FRET signal. Phosphorylation levels of each reaction are calculated using the ratio of coumarin emission (donor) over fluorescein emission (acceptor), for which high ratios indicate high phosphorylation and low ratios indicate low phosphorylation levels. The percentage inhibition of each reaction is calculated relative to non-inhibited control and the 50% inhibitory concentration (IC50 value) is then calculated from the concentration-response curve.
This method follows the same steps as Method 1 above, but utilises a shorter period of mixing of the test compound (105 minutes instead of 2 hours) with the GSK3-α protein.

PBMCs = test: LPS-induced IL-8 release in PBMC cells (assay b); assay type: cell-based, human; conditions: LPS-stimulated PBMCs, read-out: IC50 Values for Inhibition of Cytokine Release, PBMCs IL-8
Procedure: Peripheral blood mononuclear cells (PBMCs) from healthy subjects are separated from whole blood using a density gradient (Lymphoprep, Axis-Shield Healthcare). The PBMCs are seeded in 96 well plates and treated with compounds at the desired concentration for 2 hours before addition of 1 ng/mL LPS (Escherichia Coli 0111:B4 from Sigma Aldrich) for 24 hours under normal tissue culture conditions (37° C., 5% CO2). The supernatant is harvested for determination of IL-8 and TNFα concentrations by sandwich ELISA (Duo-set, R&D systems) and read on the fluorescence microplate reader (Varioskan® Flash, ThermoFisher Scientific). The concentration at 50% inhibition (IC50) of IL-8 and TNFα production is calculated from the dose response curve.

GSK 3α, sequence (P49840 whole entry): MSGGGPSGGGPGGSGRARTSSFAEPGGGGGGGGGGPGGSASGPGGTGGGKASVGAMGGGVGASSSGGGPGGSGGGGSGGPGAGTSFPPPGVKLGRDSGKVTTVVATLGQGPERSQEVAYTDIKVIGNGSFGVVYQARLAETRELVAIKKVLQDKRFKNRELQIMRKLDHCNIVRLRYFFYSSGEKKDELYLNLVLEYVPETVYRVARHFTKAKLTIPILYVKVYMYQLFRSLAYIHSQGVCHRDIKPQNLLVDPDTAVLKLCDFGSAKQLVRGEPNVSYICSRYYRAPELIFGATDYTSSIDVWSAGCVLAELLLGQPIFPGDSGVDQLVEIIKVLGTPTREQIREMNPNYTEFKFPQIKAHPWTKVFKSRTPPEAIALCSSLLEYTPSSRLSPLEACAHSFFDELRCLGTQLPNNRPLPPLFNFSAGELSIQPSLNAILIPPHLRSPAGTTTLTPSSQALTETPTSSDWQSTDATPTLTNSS

IC50 (GSK 3α) [nM]	SMILES	IC50 (PBMCs; Homo sapiens, PBMC) [nM]	IC50 (PBMCs) [nM]
> 11100	COc1c(NC(=O)Nc2ccc(Oc3ccnc(Nc4ccccc4)c3)c3ccccc23)cc(C(C)(C)C)cc1[S+](C)[O-] (single isomer, unassigned) [38(b2), 1-(5-(tert-Butyl)-2-methoxy-3-(methylsulfinyl)phenyl)-3-(4-((2-(phenylamino)pyridin-4-yl)oxy)naphthalen-1-yl)urea]	6	
97	COc1c(NC(=O)Nc2ccc(Oc3ccnc(Nc4ccc5c(c4)C(=O)NC5)n3)c3ccccc23)cc(C(C)(C)C)cc1P(C)(C)=O [15(ab), 1-(5-(tert-butyl)-3-(dimethylphosphoryl)-2-methoxyphenyl)-3-(4-((2-((3-oxoisoindolin-5-yl)amino)pyrimidin-4-yl)oxy)naphthalen-1-yl)urea]	5.5	
> 14700	CCP(=O)(CC)c1cc(C(C)(C)C)cc(NC(=O)Nc2ccc(Oc3ccnc(Nc4ccccc4)c3)c3ccccc23)c1OC [15(ac), 1-(5-(tert-butyl)-3-(diethylphosphoryl)-2-methoxyphenyl)-3-(4-((2-(phenylamino)-pyridin-4-yl)oxy)naphthalen-1-yl)urea]	9.1	
871	COc1c(NC(=O)Nc2ccc(Oc3ccnc(Nc4cncc(N(C)C)n4)c3)c3ccccc23)cc(C(C)(C)C)cc1P(C)(C)=O [15(ae), 1-(5-(tert-butyl)-3-(dimethylphosphoryl)-2-methoxyphenyl)-3-(4-((2-((6-(dimethylamino)pyrazin-2-yl)amino)pyridin-4-yl)oxy)naphthalen-1-yl)urea]	3.9	
5810	COc1c(NC(=O)Nc2ccc(Oc3ccnc(Nc4ccccc4)c3)c3ccccc23)cc(C(C)(C)C)cc1C(=O)NCCN1CCCC1 [15(ag), 5-(tert-butyl)-2-methoxy-3-(3-(4-((2-(phenylamino)pyridin-4-yl)oxy)naphthalen-1-yl)ureido)-N-(2-(pyrrolidin-1-yl)ethyl)benzamide]	9.8	
602	COc1c(NC(=O)Nc2ccc(Oc3ccnc(NC4CCN(C)CC4)n3)c3ccccc23)cc(C(C)(C)C)cc1P(C)(C)=O [15(ah), 1-(5-(tert-butyl)-3-(dimethylphosphoryl)-2-methoxyphenyl)-3-(4-((2-((1-methylpiperidin-4-yl)amino)pyrimidin-4-yl)oxy)naphthalen-1-yl)urea]	299	
127	COc1c(NC(=O)Nc2ccc(Oc3ccnc(N[C@@H]4CCOC4)n3)c3ccccc23)cc(C(C)(C)C)cc1P(C)(C)=O [15(ai), (R)-1-(5-(tert-butyl)-3-(dimethylphosphoryl)-2-methoxyphenyl)-3-(4-((2-((tetrahydrofuran-3-yl)amino)pyrimidin-4-yl)oxy)naphthalen-1-yl)urea]	3.7	
68	COc1c(NC(=O)Nc2ccc(Oc3ccnc(N[C@H]4CCOC4)n3)c3ccccc23)cc(C(C)(C)C)cc1P(C)(C)=O [15(aj), (S)-1-(5-(tert-butyl)-3-(dimethylphosphoryl)-2-methoxyphenyl)-3-(4-((2-((tetrahydrofuran-3-yl)amino)pyrimidin-4-yl)oxy)naphthalen-1-yl)urea]	1.8	
	COc1c(NC(=O)Nc2ccc(Oc3ccnc(Nc4cc(C)cc(Cl)c4)c3)c3ccccc23)cc(C(C)(C)C)cc1P(C)(C)=O [15(am), 1-(5-(tert-butyl)-3-(dimethylphosphoryl)-2-methoxyphenyl)-3-(4-((2-((3-chloro-5-methylmethylphenyl)amino)pyridin-4-yl)oxy)naphthalen-1-yl)urea]	6.1	
	COc1cc(Nc2cc(Oc3ccc(NC(=O)Nc4cc(C(C)(C)C)cc(C(=O)NCCN5CCNCC5)c4OC)c4ccccc34)ccn2)cc(OC)c1 [79(h), 5-(tert-Butyl)-3-(3-(4-((2-((3,5-dimethoxyphenyl)amino)pyridin-4-yl)oxy)naphthalen-1-yl)ureido)-2-methoxy-N-(2-(piperazin-1-yl)ethyl)benzamide]	16.4	
	COc1cc(Nc2nccc(Oc3ccc(NC(=O)Nc4cc(C(C)(C)C)cc(S(C)(=O)=O)c4OC)c4ccccc34)n2)ccc1C(=O)O [79(i), 4-((4-((4-(3-(5-(tert-Butyl)-2-methoxy-3-(methylsulfonyl)phenyl)ureido)naphthalen-1-yl)oxy)pyrimidin-2-yl)amino)-2-methoxybenzoic acid]	12.2	
	COc1cc(Nc2nccc(Oc3ccc(NC(=O)Nc4cc(C(C)(C)C)cc([S+](C)[O-])c4OC)c4ccccc34)n2)ccc1C(=O)O (stereo not drawn) [79(j), 4-((4-((4-(3-(5-(tert-Butyl)-2-methoxy-3-(methylsulfinyl)phenyl)ureido)naphthalen-1-yl)oxy)pyrimidin-2-yl)amino)-2-methoxybenzoic acid]	15.3	
	COc1cc(Nc2cc(Oc3ccc(NC(=O)Nc4cc(C(C)(C)C)cc(P(C)(C)=O)c4OC)c4ccccc34)ccn2)cc(C(=O)N(C)CCN2CCN(C)CC2)c1 [79(k), 3-((4-((4-(3-(5-(tert-Butyl)-3-(dimethylphosphoryl)-2-methoxyphenyl)ureido)naphthalen-1-yl)oxy)pyridin-2-yl)amino)-5-methoxy-N-methyl-N-(2-(4-methylpiperazin-1-yl)ethyl)benzamide]	7	
	COc1cc(Nc2cc(Oc3ccc(NC(=O)Nc4cc(C(C)(C)C)cc(P(C)(C)=O)c4OC)c4ccccc34)ccn2)cc(C(=O)N(C)CCC2CCN(C)CC2)c1 [79(l), 3-((4-((4-(3-(5-(tert-Butyl)-3-(dimethylphosphoryl)-2-methoxyphenyl)ureido)naphthalen-1-yl)oxy)pyridin-2-yl)amino)-5-methoxy-N-methyl-N-(2-(1-methylpiperidin-4-yl)ethyl)benzamide]	22.5	
	COCCOCCOCCNC(=O)c1cc(Nc2nccc(Oc3ccc(NC(=O)Nc4cc(C(C)(C)C)cc(CNC(=O)CN(C)C)c4OC)c4ccccc34)n2)cc(OC)c1 [Example 81, 3-((4-((4-(3-(5-(tert-Butyl)-3-((2-(dimethylamino)acetamido)methyl)-2-methoxyphenyl)ureido)-naphthalen-1-yl)oxy)pyrimidin-2-yl)amino)-5-methoxy-N-(2-(2-(2-methoxyethoxy)ethoxy)-ethyl)benzamide]	0.4	
	COCCOCCOCCNC(=O)c1cc(Nc2cc(Oc3ccc(NC(=O)Nc4cc(C(C)(C)C)cc(CN5CCN(C)CC5)c4OC)c4ccccc34)ccn2)cc(OC)c1 [Example 82, 3-((4-((4-(3-(5-(tert-Butyl)-2-methoxy-3-((4-methylpiperazin-1-yl)methyl)phenyl)ureido)-naphthalen-1-yl)oxy)pyridin-2-yl)amino)-5-methoxy-N-(2-(2-(2-methoxyethoxy)ethoxy)ethyl)-benzamide]	1.7	
	COc1cc(Nc2nccc(Oc3ccc(NC(=O)Nc4cc(C(C)(C)C)cc([S+](C)[O-])c4OC)c4ccccc34)n2)cc(C(=O)NCCN2CCN(C)CC2)c1 (stereo not drawn) [Example 83, 3-((4-((4-(3-(5-(tert-Butyl)-2-methoxy-3-(methylsulfinyl)phenyl)ureido)naphthalen-1-yl)oxy)pyrimidin-2-yl)amino)-5-methoxy-N-(2-(4-methylpiperazin-1-yl)ethyl)benzamide]	1.5	

SMILES	IC50 (GSK 3α) [nM]	IC50 (PBMCs; Homo sapiens, PBMC) [nM]	IC50 (PBMCs) [nM]
COc1c(NC(=O)Nc2ccc(Oc3ccnc(NCCN4CCOCC4)n3)c3ccccc23)cc(C(C)(C)C)cc1P(C)(C)=O [15(al), 1-(5-(tert-butyl)-3-(dimethylphosphoryl)-2-methoxyphenyl)-3-(4-((2-((2-morpholinoethyl)amino)pyrimidin-4-yl)oxy)naphthalen-1-yl)urea]	339		3.7
